Reference: patent US9428483B2, “Prodrug of fluorine-containing amino acid” (TAISHO PHARMACEUTICAL CO., LTD., priority 2012, dated 2016)

Key:
[1] = Test 4: percent generation of Compound (IV) in human small intestine S9; assay type: in vitro ADME; conditions: 3 μM, 1 mg protein/mL, 37° C. x 1 hr
Method: A test to determine the percent generation of Compound (IV) in human intestine S9 was conducted for Inventive Compounds (I) in accordance with the following method.
Inventive Compounds were incubated (37° C.×1 hr) in a 0.1 M phosphate buffer (pH 7.4) together with a human intestine S9 fraction (Xenotech, LLC/CP710571/Lot, 710571) in the presence of Mg^2+ (5 mM), Ca^2+ (5 mM) and Zn^2+ (0.1 mM). The final concentrations of each Inventive Compound and the small intestine S9 protein were adjusted to 3 μM and 1 mg protein/mL, respectively. To the incubated reaction mixture, 3 volumes of DMSO was added, followed by stirring and centrifugation at 3000 rpm (4° C.×10 min). The resulting supernatant was subjected to analysis by a liquid chromatography-tandem mass spectrometry (LC-MS/MS) system. The lower quantitation limit was 0.3 μM for both Inventive Compounds (I) and Compound (IV).
The LC-MS/MS system used in the measurement was equipped with Waters XBridge Amide (3.5 μm, 50 mm×4.6 mm I.D.), Waters Atlantis T3 (3 μm, 50 mm×4.6 mm I.D.), or Shimadzu Shim-pack XR-ODS (2.2 μm, 30 mm×3.0 mm I.D.) as a separation column. The mobile phase was a 0.1% formic acid/acetonitrile solution or a 0.1% formic acid/methanol solution (flow rate: 0.7-1.3 mL/min) and the analyte was eluted in a linear gradient mode. MS/MS detection of Inventive Compounds (I) and Compound (IV) was performed using an API4000 or Triple quad 5500 system with TurbolonSpray interface (both being products of AB SCIEX) in either a positive or negative ion detection mode. The percent generation of Compound (IV) in human small intestine S9 is shown in the following Table 6 with respect to Inventive Compounds.

[2] = Test 1: Solution Stability Test; assay type: physicochemical; conditions: 37° C., one hour, about 50 μg/mL; for Compound's percent residue (%) pH 6.5: 20 mM phosphate buffer (pH 6.5); for Compound's percent residue (%) pH 1.2: hydrochloric acid solution (pH 1.2)
Method: Inventive Compounds (I) were tested for their stability in solutions simulating the gastric and small intestine's digestive fluids identified below.
The percent residues of Inventive Compounds (I) in a hydrochloric acid solution (pH 1.2) and 20 mM phosphate buffer (pH 6.5) were measured in accordance with the following test method.
A test compound was dissolved in a hydrochloric acid solution (pH 1.2) containing hydrochloric acid and sodium chloride or a 20 mM phosphate buffer (pH 6.5) containing disodium hydrogenphosphate, sodium dihydrogenphosphate and sodium chloride to prepare a solution with a concentration of about 50 μg/mL (near the solubility if undissolved). The solution was incubated at 37° C. for an hour and the compound's concentration before and after the incubation was quantified by high-performance liquid chromatography to calculate the percent residue of the compound.

Cl.NCCCC[C@H](N)C(=O)N[C@]1(C(=O)O)[C@H]2[C@@H](C[C@@H]1F)[C@@H]2C(=O)O [Ex. D-5, (1S,2S,3S,5R,6S)-2-((S)-2,6-diaminohexanamide)-3-fluorobicyclo[3.1.0]hexane-2,6-dicarboxylic acid hydrochloride]
Percent generation (%) of Compound IV in human small intestine S9 [1]: 25.9%

CC(OC(=O)[C@H]1[C@@H]2C[C@H](F)[C@@](N)(C(=O)O)[C@@H]21)OC(=O)C12CC3CC(CC(C3)C1)C2 (stereo partly drawn) [Ex. A-2, (1S,2S,3S,5R,6S)-6-(1-((adamantane-1-carbonyl)oxy)ethoxy)carbonyl-2-amino-3-fluorobicyclo[3.1.0]hexane-2-carboxylic acid]
Compound's percent residue (%) pH 6.5 [2]: 101%
Compound's percent residue (%) pH 1.2 [2]: 101%

CC(OC(=O)O[C@@H]1C[C@H](C)CC[C@H]1C(C)C)OC(=O)[C@H]1[C@@H]2C[C@H](F)[C@@](N)(C(=O)O)[C@@H]21 (stereo partly drawn) [Ex. A-3, (1S,2S,3S,5R,6S)-2-amino-3-fluoro-6-((1-(((((1R,2S,5R)-2-isopropyl-5-methylcyclohexyl)oxy)carbonyl)oxy)ethoxy)carbonyl)bicyclo[3.1.0]hexane-2-carboxylic acid]
Compound's percent residue (%) pH 6.5 [2]: 100%
Compound's percent residue (%) pH 1.2 [2]: 100%

CC(C)COC(C)OC(=O)[C@H]1[C@@H]2C[C@H](F)[C@@](N)(C(=O)O)[C@@H]21.Cl (stereo partly drawn) [Ex. A-8, (1S,2S,3S,5R,6S)-2-amino-3-fluoro-6-((1-(isobutyloxy)ethoxy)carbonyl)bicyclo[3.1.0]hexane-2-carboxylic acid hydrochloride]
Compound's percent residue (%) pH 6.5 [2]: 101%
Compound's percent residue (%) pH 1.2 [2]: 100%

Cl.O=C(O)[C@H]1[C@@H]2C[C@H](F)[C@@](NC(=O)[C@@H]3CCCN3)(C(=O)O)[C@@H]21 [Ex. D-10, (1S,2S,3S,5R,6S)-3-fluoro-2-((S)-pyrrolidine-2-(carboxyamide))bicyclo[3.1.0]hexane-2,6-dicarboxylic acid hydrochloride]
Percent generation (%) of Compound IV in human small intestine S9 [1]: <10%

CCC[C@H](N)C(=O)N[C@]1(C(=O)O)[C@H]2[C@@H](C[C@@H]1F)[C@@H]2C(=O)O.Cl [Ex. D-4, (1S,2S,3S,5R,6S)-2-((S)-2-amino-4-methylbutanamide)-3-fluorobicyclo[3.1.0]hexane-2,6-dicarboxylic acid hydrochloride]
Compound's percent residue (%) pH 6.5 [2]: 100%
Compound's percent residue (%) pH 1.2 [2]: 101%
Percent generation (%) of Compound IV in human small intestine S9 [1]: <10%

CC(C)(C)C(=O)OCOC(=O)[C@H]1[C@@H]2C[C@H](F)[C@@](N)(C(=O)O)[C@@H]21 [Ex. A-7, (1S,2S,3S,5R,6S)-2-amino-3-fluoro-6-(((pivaloyloxy)methoxy)carbonyl)bicyclo[3.1.0]hexane-2-carboxylic acid]
Compound's percent residue (%) pH 6.5 [2]: 99%
Compound's percent residue (%) pH 1.2 [2]: 100%

CSCC[C@@H](N)C(=O)N[C@]1(C(=O)O)[C@H]2[C@@H](C[C@@H]1F)[C@@H]2C(=O)O.Cl [Ex. D-11, (1S,2S,3S,5R,6S)-2-((R)-2-amino-4-(methylthio)butanamide)-3-fluorobicyclo[3.1.0]hexane-2,6-dicarboxylic acid hydrochloride]
Percent generation (%) of Compound IV in human small intestine S9 [1]: <10%

CC(C)OC(=O)OC(C)OC(=O)[C@H]1[C@@H]2C[C@H](F)[C@@](N)(C(=O)O)[C@@H]21.O=C(O)C(F)(F)F (stereo partly drawn) [Ex. A-15, (1S,2S,3S,5R,6S)-2-amino-3-fluoro-6-((1-((isopropyloxycarbonyl)oxy)ethoxy)carbonyl)bicyclo[3.1.0]hexane-2-carboxylic acid trifluoroacetate]
Compound's percent residue (%) pH 6.5 [2]: 101%
Compound's percent residue (%) pH 1.2 [2]: 102%

Cl.N[C@@H](Cc1ccccc1)C(=O)N[C@]1(C(=O)O)[C@H]2[C@@H](C[C@@H]1F)[C@@H]2C(=O)O [Ex. D-9, (1S,2S,3S,5R,6S)-2-((S)-2-amino-3-phenylpropanamide)-3-fluorobicyclo[3.1.0]hexane-2,6-dicarboxylic acid hydrochloride]
Percent generation (%) of Compound IV in human small intestine S9 [1]: <10%

CC(OC(=O)OC1CCCCC1)OC(=O)[C@H]1[C@@H]2C[C@H](F)[C@@](N)(C(=O)O)[C@@H]21 (stereo partly drawn) [Ex. A-10, (1S,2S,3S,5R,6S)-2-amino-6-((1-(((cyclohexyloxy)carbonyl)oxy)ethoxy)carbonyl)-3-fluorobicyclo[3.1.0]hexane-2-carboxylic acid]
Compound's percent residue (%) pH 6.5 [2]: 97%
Compound's percent residue (%) pH 1.2 [2]: 100%

Cl.NCC(=O)N[C@]1(C(=O)O)[C@H]2[C@@H](C[C@@H]1F)[C@@H]2C(=O)O [Ex. D-3, (1S,2S,3S,5R,6S)-2-(2-aminoacetamide)-3-fluorobicyclo[3.1.0]hexane-2,6-dicarboxylic acid hydrochloride]
Compound's percent residue (%) pH 6.5 [2]: 102%
Compound's percent residue (%) pH 1.2 [2]: 100%
Percent generation (%) of Compound IV in human small intestine S9 [1]: <10%

Cc1oc(=O)oc1COC(=O)[C@H]1[C@@H]2C[C@H](F)[C@@](N)(C(=O)O)[C@@H]21 [Ex. A-16, (1S,2S,3S,5R,6S)-2-amino-3-fluoro-6-(((5-methyl-2-oxo-1,3-dioxol-4-yl)methoxy)carbonyl)bicyclo[3.1.0]hexane-2-carboxylic acid]
Compound's percent residue (%) pH 6.5 [2]: 98%
Compound's percent residue (%) pH 1.2 [2]: 99%

C[C@H](N)C(=O)N[C@]1(C(=O)O)[C@H]2[C@@H](C[C@@H]1F)[C@@H]2C(=O)O.Cl [Ex. D-2, (1S,2S,3S,5R,6S)-2-((S)-2-aminopropanamide)-3-fluorobicyclo[3.1.0]hexane-2,6-dicarboxylic acid hydrochloride]
Compound's percent residue (%) pH 6.5 [2]: 103%
Compound's percent residue (%) pH 1.2 [2]: 100%
Percent generation (%) of Compound IV in human small intestine S9 [1]: 17.8%

CC(OC(=O)OC12CC3CC(CC(C3)C1)C2)OC(=O)[C@H]1[C@@H]2C[C@H](F)[C@@](N)(C(=O)O)[C@@H]21 (stereo partly drawn) [Ex. A-14, (1S,2S,3S,5R,6S)-6-((1-(((adamantan-1-yloxy)carbonyl)oxy)ethoxy)carbonyl)-2-amino-3-fluorobicyclo[3.1.0]hexane-2-carboxylic acid]
Compound's percent residue (%) pH 6.5 [2]: 97%
Compound's percent residue (%) pH 1.2 [2]: 95%

N[C@]1(C(=O)O)[C@H]2[C@@H](C[C@@H]1F)[C@@H]2C(=O)OCOC(=O)C12CC3CC(CC(C3)C1)C2 [Ex. A-1, (1S,2S,3S,5R,6S)-6-(((adamantane-1-carbonyl)oxy)methoxy)carbonyl-2-amino-3-fluorobicyclo[3.1.0]hexane-2-carboxylic acid]
Compound's percent residue (%) pH 6.5 [2]: 99%
Compound's percent residue (%) pH 1.2 [2]: 100%

CC(C)[C@@H]1CC[C@@H](C)C[C@H]1OC(=O)OCOC(=O)[C@H]1[C@@H]2C[C@H](F)[C@@](N)(C(=O)O)[C@@H]21 [Ex. A-4, (1S,2S,3S,5R,6S)-2-amino-3-fluoro-6-(((((((1R,2S,5R)-2-isopropyl-5-methylcyclohexyl)oxy)carbonyl)oxy)methoxy)carbonyl)bicyclo[3.1.0]hexane-2-carboxylic acid]
Compound's percent residue (%) pH 6.5 [2]: 98%
Compound's percent residue (%) pH 1.2 [2]: 99%

N[C@]1(C(=O)O)[C@H]2[C@@H](C[C@@H]1F)[C@@H]2C(=O)OCOC(=O)OC12CC3CC(CC(C3)C1)C2 [Ex. A-13, (1S,2S,3S,5R,6S)-6-(((((adamantan-1-yloxy)carbonyl)oxy)methoxy)carbonyl)-2-amino-3-fluorobicyclo[3.1.0]hexane-2-carboxylic acid]
Compound's percent residue (%) pH 6.5 [2]: 93%
Compound's percent residue (%) pH 1.2 [2]: 93%

C[C@H](N)C(=O)N[C@@H](C)C(=O)N[C@]1(C(=O)O)[C@H]2[C@@H](C[C@@H]1F)[C@@H]2C(=O)O.Cl [Ex. D-8, (1S,2S,3S,5R,6S)-2-((S)-2-((S)-2-aminopropanamide)propanamide)-3-fluorobicyclo[3.1.0]hexane-2,6-dicarboxylic acid hydrochloride]
Percent generation (%) of Compound IV in human small intestine S9 [1]: 11.7%

Cl.N[C@]1(C(=O)O)[C@H]2[C@@H](C[C@@H]1F)[C@@H]2C(=O)OC1OC(=O)c2ccccc21 (stereo partly drawn) [Ex. A-17, (1S,2S,3S,5R,6S)-2-amino-3-fluorobicyclo[3.1.0]hexane-2,6-dicarboxylic acid 6-(3-phthalidyl) ester hydrochloride]
Compound's percent residue (%) pH 6.5 [2]: 97%
Compound's percent residue (%) pH 1.2 [2]: 99%
